Measurements as given in a melting point compilation (Tetko et al.; mined from patent text by program, amines drawn as free bases though some values may be those of a salt).

Compared with CC(=O)N1Cc2cnc(C)n2-c2ccc(Cl)cc2C1c1ccccc1F (stereo unspecified), CC(=O)Nc1c(C(=O)c2cccc(F)c2)[nH]c2cc(Cl)ccc12 is higher in melting point: 185 to 186 °C for the first, 201 to 202 °C for the second.

First: CCC(=O)NCCC1=CCc2cc(Br)c(OC)cc21
Second: COc1ccc2ccc(N3C(=O)c4ccccc4C3OCC(=O)NCCC(C)C)nc2n1 (stereo unspecified)
The melting point of the first is lower: 106 to 109 °C for the first, 136 °C for the second.

First: CCCCCCCCCCCCCCCCCCOc1cc(OCCCBr)cc(C(=O)OCc2ccccc2)c1
Second: OCCCCCCCCCCCCCCCCN(CCO)CCO
The melting point of the first is lower: 57 to 58 °C for the first, 67.6 to 68.8 °C for the second.

Compared with CCCOc1cc(OCCCc2cn(-c3ccc(C(F)(F)F)cn3)nc2OCC)ccc1CCC(=O)O, CCCc1nn(-c2ccc(C(F)(F)F)cn2)cc1CCCOc1ccc(OC)c(CCC(=O)O)c1 is lower in melting point: 126 to 127 °C for the first, 104 to 106 °C for the second.

First: COCCON=C(C1=C(O)C(=O)N(c2ccc(C)nn2)C1c1ccc(OC(F)(F)F)cc1)c1ccc(C(C)C)cc1 (stereo unspecified)
Second: Cc1ccc(N2C(=O)C(O)=C(C(=O)c3ccc(C(C)C)cc3)C2c2ccc(N3CCN(C)CC3)cc2)nn1 (stereo unspecified)
The melting point of the first is lower: 115 to 118 °C for the first, 198 to 203 °C for the second.

First: O=c1[nH]nc(-c2ccccc2SCc2ccccc2)o1
Second: CC1Nc2ccccc2N(Cc2ccccc2)C(=O)C1Cc1ccccc1 (stereo unspecified)
The melting point of the first is higher: 169 to 172 °C for the first, 140 to 141 °C for the second.

First: O=C1Nc2c(cc([N+](=O)[O-])cc2[N+](=O)[O-])C1c1ncnc2c1cnn2C1CCCC1 (stereo unspecified)
Second: O=[N+]([O-])c1ccc(F)cc1OC1C=CCC1 (stereo unspecified)
The melting point of the first is higher: 242 to 246 °C for the first, 50.5 to 51 °C for the second.

First: Cc1cc(CCCCCCCOc2ccc(C3=NCC(CO)O3)cc2)on1 (stereo unspecified)
Second: Cc1ccc(C(=O)N2CCC(c3ccccc3)=N2)cn1
The melting point of the first is lower: 71 to 73 °C for the first, 86 to 87 °C for the second.

First: N#Cc1cc([N+](=O)[O-])ccc1Oc1c(F)c(F)cc(F)c1F
Second: N#Cc1cc(Br)c(NC(=O)NC(=O)c2c(F)cccc2F)cc1Cl
The melting point of the first is lower: 152 to 154 °C for the first, 247 °C for the second.

First: C=CCn1c(-c2c(Cl)cccc2Cl)nc(-c2ccncc2)c1-c1ccc(C)cc1
Second: Cn1c(=O)c(-c2ccc(Cl)cc2Cl)cc2c3cc(-c4ccn[nH]4)ccc3n(C)c21
The melting point of the first is lower: 147 to 149 °C for the first, 281 to 282 °C for the second.

First: CCc1ccc(C=C2C(=O)c3cc(O)ccc3OC2c2ccc(CC)cc2)cc1 (stereo unspecified)
Second: C(=Cc1nc2ccccc2s1)c1ccc2cc(N(c3ccccc3)c3ccccc3)ccc2c1
The melting point of the first is lower: 178 to 180 °C for the first, 181 to 185 °C for the second.

Compared with NC(=O)c1cc(OCCNCc2ccccc2)ccc1O, O=CCOc1ccc(Oc2ccccc2)cc1 is lower in melting point: 140 °C for the first, 79 to 81 °C for the second.

First: COC(=O)CCCc1cc2nc(Cl)ccc2n1S(=O)(=O)c1ccc(-n2cccn2)cc1
Second: COC(=O)C(=O)CC(=O)c1ccc(Cc2ccc(Cl)c(Cl)c2)cc1
The melting point of the first is higher: 122 to 124 °C for the first, 104 to 106 °C for the second.

First: Cc1cn2c(N)c(Cl)cc(C(=O)NCC3CCN(CC(C)C)CC3)c2n1
Second: CN(C)S(=O)(=O)c1cccc2c1Sc1ccc(O)cc1N2CCCN1CCC(CCO)CC1
The melting point of the first is higher: 216 to 219 °C for the first, 163 to 165 °C for the second.

First: c1ccc2c(C3CCC4(CC3)OCCO4)c[nH]c2c1
Second: Clc1nccc(N2CCC3(CC2)OCc2ccccc23)c1Cl
The melting point of the first is higher: 163 to 165 °C for the first, 161 °C for the second.

First: COc1ccc(CN2C(=O)C(C)(c3cc(COCCN4CCOCC4)ccc3Cl)c3cc(Cl)ccc32)c(OC)c1 (stereo unspecified)
Second: COc1cccc(C2=Nc3ccc(N4CCCC4)cc3C(=O)C2)c1OC
The melting point of the first is lower: 81 °C for the first, 258 to 260 °C for the second.

Compared with CC[Si](CC)(CC)OC1C(=O)NC1c1cccs1 (stereo unspecified), CCOC(=O)C(=O)c1cn(CCN(C)C)c2ccccc12 is higher in melting point: 70 to 71 °C for the first, 71 to 72 °C for the second.

Compared with CCCCC(CC)COC(=O)COc1cc(F)ccc1C(=O)NCc1cccc([N+](=O)[O-])c1 (stereo unspecified), CC(=O)N(O)Cc1cccc([N+](=O)[O-])c1 is higher in melting point: 59 to 60 °C for the first, 80 °C for the second.

First: CCCc1c(OCCCCCCOc2ccc(C(=O)c3cccc(C(=O)OCC)c3)cc2CCC(=O)OCC)ccc2c1OCCC2=O
Second: COc1cc2c(cc1OC)CN(CCCCNC(=O)c1cc(C)ccc1OCCOCCF)CC2
The melting point of the first is lower: 58 to 59.5 °C for the first, 89.2 to 89.5 °C for the second.

Compared with CCCCCCCSc1nnc(N)s1, CCCCN(Cc1ccc(Cl)cc1)c1cncnc1 is lower in melting point: 112 to 113 °C for the first, 67 to 68 °C for the second.

First: Cc1ccc(SCc2ccc(OC(F)(F)F)cc2)cc1
Second: Cc1ccc(S(=O)(=O)NCC(C)NS(=O)(=O)c2ccc(C)cc2)cc1 (stereo unspecified)
The melting point of the first is lower: 74 to 76 °C for the first, 105 to 107 °C for the second.

First: CCOC(=O)C1CCC(c2ccc(Cl)cc2)n2c(=O)n(CCCl)c(=O)n21 (stereo unspecified)
Second: CCn1c(=O)n(OCc2ccccc2)c(=O)c2cc(F)c(N3CCN(C)CC3)nc21
The melting point of the first is lower: 111 to 112 °C for the first, 178 to 179 °C for the second.

First: O=C1c2c(O)ccc(O)c2C(=O)c2c(NCCN3CCC(O)CC3)ccc(NCCN3CCC(O)CC3)c21
Second: Oc1cccc2c1CC[C@H]1[C@@H]2CCN1CCC1CCCCC1
The melting point of the first is higher: 241 to 244 °C for the first, 130 to 133 °C for the second.

First: CCCc1nc2c(N)nc3cc(-c4cccnc4)ccc3c2n1CCCCNC(=O)OC(C)(C)C
Second: CCCn1c(=O)c2[nH]c(-c3cc(C)n(CC(=O)Nc4ccc(C)cc4)n3)nc2n(CCC)c1=O
The melting point of the first is lower: 136 to 138 °C for the first, > 300 °C for the second.

First: CC(Cn1nccn1)n1nnc2cc3c(=O)n(C(C)Cn4nccn4)nnc3cc2c1=O (stereo unspecified)
Second: CC(C)n1nc(-c2cc(C(=O)O)c(=O)[nH]c2-c2ccccc2)ccc1=O
The melting point of the first is lower: 194 to 195 °C for the first, 212 to 215 °C for the second.

Compared with Cc1cc(OCCNC(=O)C2Cc3ccccc3N2S(=O)(=O)c2ccc(-c3ccccc3C(F)(F)F)cc2)ccc1CC(=O)O (stereo unspecified), NS(=O)(=O)c1ccc(S(=O)(=O)N2CCc3cccc(-c4ccc(F)cc4)c32)cc1 is higher in melting point: 85 to 95 °C for the first, 189 to 190 °C for the second.

Compared with CCOC(=O)CCN(CCCCCCN(CCC(=O)OCC)C1CC(C)(C)NC(C)(C)C1)C1CC(C)(C)NC(C)(C)C1, CCOc1c(C)c(N2CCN(c3ccc(OC)cc3)CC2)c(C)c2c1OC(C)(C)C2 is higher in melting point: 58 to 60 °C for the first, 151 to 153 °C for the second.

Compared with CCC(=S)C1=C(C)NC2=C(C(=O)c3ccccc32)C1c1ccccc1[N+](=O)[O-] (stereo unspecified), Cc1nc(-c2ccccc2)nc(-c2cccc([N+](=O)[O-])c2)c1C(=O)NCCCl is lower in melting point: 221 °C for the first, 199 to 200 °C for the second.

Compared with N#CC=CNc1ccnc(-c2ccncc2)n1, Cc1c(Sc2cccnc2)sc2ccc(C(=O)O)cc12 is lower in melting point: 253 to 255 °C for the first, 220 to 222 °C for the second.

First: CC1=C(Cc2cccc(Br)c2)C(=O)C2C=CC=CC2C1=O (stereo unspecified)
Second: O=S(=O)(Nc1ccc2c(OCc3cccc(Br)c3)cccc2c1)C(F)(F)F
The melting point of the first is lower: 108 to 109 °C for the first, 113 to 115 °C for the second.

First: Nc1ccc(C(=O)C(=O)c2ccc(N)cc2)cc1
Second: CN(C)C(=O)Sc1ccc(C(F)(F)F)cc1C(=O)c1ccc(C#N)cc1
The melting point of the first is higher: 207 °C for the first, 159 °C for the second.

Compared with Cn1ncsc1=NC(=S)Nc1ccccc1, Cc1sc(N2CCCCC2)nc1C=Cc1cn(-c2ccccc2)nc1O is higher in melting point: 174 to 175 °C for the first, 224 to 226 °C for the second.

First: CCn1c(=O)c(C)cc2cnc(Nc3ccc(N4CCN(C)CC4)cc3)nc21
Second: O=C(Nc1cccnn1)N1CCN(c2cc(-c3ccc(F)cc3)ncn2)CC1
The melting point of the first is lower: 198 to 200 °C for the first, 254 to 255 °C for the second.

Compared with Nc1c(C(=O)O)ccc(F)c1F, COc1cccc(C(=O)CS(C)=O)c1N (stereo unspecified) is lower in melting point: 207 to 208 °C for the first, 106 to 108 °C for the second.

First: Cc1ccc(CNC(=O)C2=C(C(=O)Nc3cc(OC4CCCC4)c(Cl)cc3F)CCCC2)cc1
Second: CCc1ccc(NC(=O)N[C@H]2C[C@H](C(=O)O)Nc3cc(Cl)cc(Cl)c32)cc1 (relative stereo)
The melting point of the first is lower: 168 to 169 °C for the first, 195 to 197 °C for the second.

Compared with CC(C)C[C@H](NC(=O)COc1ccc(Cl)cc1)C(=O)N[C@@H](C(C)C)[C@@H](O)c1c(-c2ccccc2)c1=O, C[C@H](NC(=O)C[C@@H](CC(=O)O)c1ccc(F)cc1)c1ccccc1 is higher in melting point: 88 to 90 °C for the first, 195 to 196 °C for the second.

Compared with Cc1cc2c(s1)Nc1ccccc1NC2=S, O=C1Nc2ccccc2Oc2ncccc21 is lower in melting point: 259 to 260 °C for the first, 250 to 253 °C for the second.

Compared with C#CCOc1cc(CO)cc(OCC#C)c1, CCOC(Cc1ccc(OCCn2ccc3ccc(C(=O)C4CC4)nc32)cc1)C(=O)OC (stereo unspecified) is higher in melting point: 79 to 80 °C for the first, 159 °C for the second.

First: Cc1nc(O)c([N+](=O)[O-])c(Cl)n1
Second: COP(=S)(OC)Oc1nc(F)c(Cl)cc1Cl
The melting point of the first is higher: 194 to 196 °C for the first, < 20 °C for the second.

First: CC(C)CP1C(O)C(O)P(CC(C)C)C(O)C1O (stereo unspecified)
Second: CC(=O)Nc1ccc2c(c1)C(=O)C(=O)N2CCN(C(C)C)C(C)C
The melting point of the first is lower: 173 to 175 °C for the first, 187 to 190 °C for the second.

Compared with COc1ccc2c(c1C)OC(C(=O)O)C2 (stereo unspecified), COC(=O)C1Cc2c([nH]c3ccccc23)C(C)N1 (stereo unspecified) is higher in melting point: 142 to 143 °C for the first, 152 to 154 °C for the second.

First: O=C1C(c2cc3c(cc2O)OCCCO3)c2ccccc2N1C(c1ccccc1)c1ccccc1 (stereo unspecified)
Second: CCc1cc(OCc2ccc(-c3ccccc3-c3nnn(C(c4ccccc4)(c4ccccc4)c4ccccc4)n3)cc2)c2nc(OC)ccc2n1
The melting point of the first is higher: 193 to 195 °C for the first, 145 to 148 °C for the second.

Compared with O=C1CCC(c2ccc(N=Cc3ccc(C(F)(F)F)cc3)cc2)=NN1, NC(=O)CN1CCN(C(=O)c2cc(C(F)(F)F)cc(C(F)(F)F)c2)[C@H](Cc2c[nH]c3ccccc23)C1 is lower in melting point: 245 to 247 °C for the first, 170 to 173 °C for the second.

First: COc1nc(NC(=O)NS(=O)(=O)c2sccc2C(F)=C(F)C(F)(F)F)nc(OC)n1
Second: Cc1cc(-c2cc(C(F)(F)F)n3ncc(-c4nc(-c5ccnc(N)c5)no4)c3n2)ccc1C(F)(F)F
The melting point of the first is lower: 149 to 153 °C for the first, 245 °C for the second.

Compared with Cc1cccc(N=c2scc(-c3ccc(Cl)c(S(=O)(=O)N(C)C)c3)n2C)c1C, CCCc1c(C(C)C)nc(C(C)C)c(CO)c1-c1ccc(F)cc1 is lower in melting point: 226 °C for the first, 49 to 54 °C for the second.

First: CCOC=Cc1nc2c(=O)n(Cc3ccccc3)cnc2n1Cc1ccccc1
Second: O=C(Nc1nc(-c2ccccc2)cs1)Nc1nc(-c2ccccc2)cs1
The melting point of the first is lower: 167 to 168 °C for the first, 285 to 287 °C for the second.

First: CC(C)CCCC(C)Cc1nc2c3ccsc3c3sccc3c2nc1CC(C)CCCC(C)C (stereo unspecified)
Second: CC(CCn1c(=O)[nH]c2ccccc21)N1CCC(CC(=O)c2ccc(F)cc2)CC1 (stereo unspecified)
The melting point of the first is lower: 57.5 to 58.7 °C for the first, 185 °C for the second.

First: OC(Cc1ccc2ccccc2n1)C(Cl)(Cl)Cl (stereo unspecified)
Second: CN1CCC(OC2c3ccccc3CCn3c2nc(-c2ccccc2)c3CO)CC1 (stereo unspecified)
The melting point of the first is higher: 156 to 158 °C for the first, 120 °C for the second.
